From patent US5750354A, “Lipoxin transport system and uses therefor” (priority 1994, dated 1998)
“Also recorded” adds a separate entry of the source.

Tests used:
[1] = test system: human neutrophils; conditions: not told
[2] = test system: unstimulated human erythrocytes; test: [3H]LXA4 uptake into erythrocytes; type: cell-based; conditions: Medium, 5 nM, 1-30 min
Description: Red Blood Cells (RBC): RBC were obtained directly from the heparinized blood of normal human donors. During repeated (four) washing steps, the uppermost portion of the cell pellets was aspirated and discarded to remove residual minor contamination of buffy coat cells.
(§1) Human red cells, lymphocytes, and platelets were isolated from peripheral blood as described under Methods. Undifferentiated HL-60 cells were grown in culture according to standard protocols. Differentiated HL-60 cells were obtained by exposing cells to 1 μM retinoic acid for 5 days in culture. After harvesting and isolation, all cells were kept in the standard medium for 1 hour at 37° C. prior to assay. […] Results represent the means±SEM of three-four separate experiments for each cell type.

[3] = test system: protein kinase C (PKC); conditions: about 10 nM; cited from earlier work
[4] = nM levels; cited from earlier work
[5] = test system: retinoic acid-induced HL-60 cells; test: [3H]LXA4 uptake into retinoic acid-induced HL-60 cells; type: cell-based, human; conditions: Medium, 5 nM, 1-30 min
Description: (§2) HL-60 Cells: HL-60 cells were seeded into RPMI medium supplemented with 100 U/ml penicillin, 100 μg/ml streptomycin, and 10% fetal calf serum (Hyclone, Logan, Utah) and grown at 37° C. in 250 ml flasks in a 5% CO2 /95% air atmosphere. Cells were induced to differentiate toward a neutrophil-like phenotype by exposure to 1 μM retinoic acid for 5 days.
as §1

[6] = test system: polymorphonuclear leukocytes; conditions: cited from earlier work
[7] = test system: lipoxin transport system; test: [3H]LXA4 influx into human neutrophils (unidirectional tracer flux); conditions: combined data: Control, 0.4 mM SITS, 1 mM probenecid, Na+-free medium, high K+ medium; 5 nM LXA4
[8] = test system: neutrophils; conditions: 37° C.; cited from earlier work
[9] = test system: LTD4- and LTB4-mediated inflammation; conditions: in vivo; cited from earlier work
[10] = target: T1, specific lipoxin receptors (Homo sapiens, UniProt P25090); test: [3H]LXA4 ligand binding to human neutrophils
T1 sequence (P25090 1-351): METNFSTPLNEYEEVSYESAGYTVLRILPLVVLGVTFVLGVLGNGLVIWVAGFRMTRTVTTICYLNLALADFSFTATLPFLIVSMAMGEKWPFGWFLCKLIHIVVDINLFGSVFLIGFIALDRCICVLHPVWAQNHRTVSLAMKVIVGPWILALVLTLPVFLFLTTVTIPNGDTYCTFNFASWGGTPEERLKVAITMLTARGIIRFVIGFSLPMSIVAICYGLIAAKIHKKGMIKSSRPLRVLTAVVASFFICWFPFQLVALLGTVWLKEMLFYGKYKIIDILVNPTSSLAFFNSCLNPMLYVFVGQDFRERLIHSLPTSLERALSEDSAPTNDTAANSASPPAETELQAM
Description: Influx rates were calculated by fitting the data points to a single exponential equation (Eq. 1). Results have been taken from three experiments based upon duplicate determinations. […] Specific binding was taken as the difference between total and non-specific binding. […] Results are from three separate experiments, each performed in triplicate.

[11] = target: T1, specific lipoxin receptors; conditions: 4° C.; cited from earlier work
[12] = test system: renal vasoconstrictor actions of LTD4; conditions: prior exposure, nM; cited from earlier work
[13] = test system: unstimulated human platelets; test: [3H]LXA4 uptake into platelets; type: cell-based; conditions: Medium, 5 nM, 1-30 min
Description: Platelets: Platelets were purified to homogeneity from acid citrate dextrose-treated blood according to established protocols (Romano, M. and Serhan, C. N. (1992) Biochemistry 31:8269-8277).
as §1

[14] = test system: myeloid bone marrow colony formation; conditions: 10^-10 M range, with suboptimal GM-CSF; cited from earlier work
[15] = test system: asthmatic patients; conditions: micromolar amounts via inhalation; cited from earlier work
[16] = RP-HPLC analysis of LXA4 integrity after exposure to inhibitors; type: physicochemical; conditions: 30 min of exposure
[17] = test system: neutrophils; test: Phagocytosis of opsonized sheep red blood cells by neutrophils; type: cell-based, human
Description: Neutrophils were prepared as described in the general methodology and suspended at a concentration of 10×10^6 -15×10^6 cells/ml in Hepes Hanks buffer, pH 7.4, supplemented with 1 mg/ml BSA, 1 mg/ml glucose, 0.5 mM MgCl2 and 1.0 mM CaCl2 --2H2 O.
The sheep red blood cells (SRBCs) were prepared by washing the cells with 1× veronal-buffered saline (VBS), incubating the cells with a 1:500 dilution of rabbit anti-SRBC IgG antibody at 37° C. for 15 minutes, centrifuging the cells at 2000 rpm for 5 minutes at 4° C. and washing the cells twice with 1×VBS. SRBCs were resuspended at a final concentration of 10×10^8 cells/ml.
Each component was pipetted separately to the bottom of a 12×75 mm test tube to allow thorough mixing of the components.
To each 100 μl mixture was added 15 μl of opsonized SRBCs to start the phagocytosis reaction. The tubes were vortexed and placed in a 37° C. incubator for 30 minutes. After 30 minutes, the tubes were placed on ice to stop the reaction.
Non-phagocytosed SRBCs were lysed by adding 1.0 ml of 0.83% NH4 Cl to each tube, with shaking, and centrifuging the tubes quickly at 1500 rpm for 3 minutes. The supernatant was removed and the pellets were resuspended in 30 gl of PBS. The 30 μl solution was placed onto a polylysine-coated microscope slide and after 15 minutes the excess solution was removed from the slide. The cells on the slide were fixed with 1% glutaraldehyde for 5 minutes and then the excess glutaraldehyde was removed. The cells were stained with Giemsa Stain by immersing the slide in the stain for 25 minutes, rinsing the slide with water and allowing the slide to dry overnight.
The slides were examined with a light microscope at 100×power. SRBCs which were phagocytosed by neutrophils were visible as yellow cells within blue-stained neutrophils. The results for each reaction were expressed as a phagocytic index, representing the number of SRBCs phagocytosed per 100 neutrophils. […]

[18] = test system: human mononuclear cell-colony formation; conditions: cited from earlier work
[19] = cited from earlier work
[20] = test system: undifferentiated HL-60 cells; test: [3H]LXA4 uptake into undifferentiated HL-60 cells; type: cell-based, human; conditions: Medium, 5 nM, 1-30 min
Description: as §2, §1

[21] = test system: unstimulated human lymphocytes; test: [3H]LXA4 uptake into lymphocytes; type: cell-based; conditions: Medium, 5 nM, 1-30 min
Description: Lymphocvtes: The lymphocyte-rich interface layer was taken at the Ficoll-Hypaque gradient step of the neutrophil purification procedure. Platelets were removed by slow-speed centrifugation (see below) and contaminating monocytes and neutrophils by adherence to plastic Petri dishes for 1 hour at 37 ° C.
as §1

CCCCC[C@H](O)/C=C/C=C\C=C\C=C\[C@@H](O)[C@@H](O)CCCC(=O)O [LXA4, (5S,6R,15S)-trihydroxy-7,9,13-trans-11-cis-eicosatetraenoic acid]
efflux final value (relative cell content) [1]: 0.54±0.03
[3H]LXA4 Uptake Rate [2]: 0.0014 ± 0.0006 fmol/10^6 cells/min
effect on PKC activity [3]: enhance
vasodilation [4]: elicit prompt vasodilation
[3H]LXA4 Uptake Rate [5]: 0.73 ± 0.15 fmol/10^6 cells/min
chemotaxis [6]: inhibits chemotaxis
final [3H]LXA4 uptake (combined data) [7]: 7.26±0.26 fmol/10^6 cells
initial [3H]LXA4 influx rate (combined data) [7]: 0.57±0.09 fmol/10^6 cells/min
metabolic transformation in neutrophils [8]: not subject to metabolic transformation
leukotriene-mediated inflammation [9]: inhibits
[3H]LXA4 Binding, total ([10]; Medium, 0.3 nM [3H]LXA4, 4° C., 5 min, no unlabeled LXA4): 1.05 ± 0.03 fmol/10^6 cells
[3H]LXA4 Binding, non-specific ([10]; Medium, + unlabeled LXA4 0.3 μM): 0.40 ± 0.08 fmol/10^6 cells
specific binding as share of total binding ([10]; displaced by 1,000-fold excess unlabeled LXA4): ~ 70%
[3H]LXA4 Binding, non-specific ([10]; pHo 6.40, + unlabeled LXA4 0.3 μM): 0.39 ± 0.04 fmol/10^6 cells
[3H]LXA4 Binding, total ([10]; pHo 6.40, no unlabeled LXA4): 1.02 ± 0.09 fmol/10^6 cells
[3H]LXA4 Binding, non-specific ([10]; pHo 8.40, + unlabeled LXA4 0.3 μM): 0.42 ± 0.09 fmol/10^6 cells
[3H]LXA4 Binding, total ([10]; pHo 8.40, no unlabeled LXA4): 1.19 ± 0.12 fmol/10^6 cells
binding sites [11]: ~ 1830 sites/cell
half-time for binding [11]: .15 s
renal vasoconstriction by LTD4 [12]: blocks renal vasoconstrictor actions
[3H]LXA4 Uptake Rate [13]: -0.0003 ± 0.0015 fmol/10^6 cells/min
cell proliferation / colony formation [14]: stimulates cell proliferation
bronchoconstriction [15]: blocks bronchoconstriction
integrity after exposure to DISA, PCP, UK-5099, and mersalyl [16]: preservation of the integrity
effect on neutrophil phagocytosis, phagocytic index ([17]; 100 nM or 1000 nM, pH 7.4, 37° C., 30 minutes): more effective at inhibiting phagocytosis than LXB4; also recorded: inhibit phagocytosis
pH-dependence of inhibition of neutrophil phagocytosis ([17]; extracellular pH 6.4, 7.4, 8.4): increases as the extracellular pH is decreased
mononuclear cell-colony formation [18]: stimulates
pK' of the carboxylic acid moiety [19]: ~ 3.8
[3H]LXA4 Uptake Rate [20]: 0.11 ± 0.02 fmol/10^6 cells/min
[3H]LXA4 Uptake Rate [21]: 0.0019 ± 0.0048 fmol/10^6 cells/min
